Results: ChEMBL document CHEMBL3045696, “CsFCelite catalyzed facile N-alkylation of 2(3H)-benzoxazolones and antimicrobial properties of 2-substituted benzoxazole and 3-substituted-2(3H)-benzoxazolone derivatives” (2011)
Converted amounts (≈) assume the structure as drawn. The source made the active and inactive calls. The rule behind the calls is not given here.

Assays:
Assay type in all cases: functional
[1] = test system: Candida albicans; assay: Antimicrobial activity against Candida albicans MTCC 227 at 50 ug after 48 hr by agar well diffusion method; conditions: MTCC 227, 48 h, read-out: IZ
[2] = test system: Saccharomyces cerevisiae; assay: Antimicrobial activity against Saccharomyces cerevisiae MTCC 36 at 50 ug after 48 hr by agar well diffusion method; conditions: MTCC 36, 48 h, read-out: IZ
[3] = test system: Aspergillus niger; assay: Antimicrobial activity against Aspergillus niger MTCC 282 at 50 ug after 48 hr by agar well diffusion method; conditions: MTCC 282, 48 h, read-out: IZ
[4] = test system: Rhizopus arrhizus; assay: Antimicrobial activity against Rhizopus oryzae MTCC 262 at 50 ug after 48 hr by agar well diffusion method; conditions: MTCC 262, 48 h, read-out: IZ
[5] = test system: Staphylococcus aureus; assay: Antimicrobial activity against Staphylococcus aureus MTCC 96 by broth dilution method
[6] = test system: Klebsiella pneumoniae; assay: Antimicrobial activity against Klebsiella pneumoniae MTCC 618 by broth dilution method
[7] = test system: Bacillus subtilis; assay: Antimicrobial activity against Bacillus subtilis MTCC 441 by broth dilution method
[8] = test system: Saccharomyces cerevisiae; assay: Antimicrobial activity against Saccharomyces cerevisiae MTCC 36 at 150 ug after 48 hr by agar well diffusion method
[9] = test system: Candida albicans; assay: Antimicrobial activity against Candida albicans MTCC 227 at 100 ug after 48 hr by agar well diffusion method
[10] = test system: Aspergillus niger; assay: Antimicrobial activity against Aspergillus niger MTCC 282 at 150 ug after 48 hr by agar well diffusion method; conditions: for zone of inhibition at 150 µg/disc: MTCC 282, 48 h, read-out: IZ
[11] = test system: Pseudomonas aeruginosa; assay: Antimicrobial activity against Pseudomonas aeruginosa MTCC 741 by broth dilution method
[12] = test system: Escherichia coli; assay: Antimicrobial activity against Escherichia coli MTCC 443 by broth dilution method
[13] = test system: Saccharomyces cerevisiae; assay: Antimicrobial activity against Saccharomyces cerevisiae MTCC 36 at 100 ug after 48 hr by agar well diffusion method
[14] = test system: Staphylococcus epidermidis; assay: Antimicrobial activity against Staphylococcus epidermidis by broth dilution method
[15] = test system: Candida albicans; assay: Antimicrobial activity against Candida albicans MTCC 227 at 150 ug after 48 hr by agar well diffusion method; conditions: for zone of inhibition at 150 µg/disc: MTCC 227, 48 h, read-out: IZ
[16] = test system: Rhizopus arrhizus; assay: Antimicrobial activity against Rhizopus oryzae MTCC 262 at 150 ug after 48 hr by agar well diffusion method; conditions: for zone of inhibition at 150 µg/disc: MTCC 262, 48 h, read-out: IZ
[17] = test system: Rhizopus arrhizus; assay: Antimicrobial activity against Rhizopus oryzae MTCC 262 at 100 ug after 48 hr by agar well diffusion method; conditions: for zone of inhibition at 100 µg/disc: MTCC 262, 48 h, read-out: IZ
[18] = test system: Aspergillus niger; assay: Antimicrobial activity against Aspergillus niger MTCC 282 at 100 ug after 48 hr by agar well diffusion method; conditions: for zone of inhibition at 100 µg/disc: MTCC 282, 48 h, read-out: IZ

MIC [5] [µg/mL] | MIC [6] [µg/mL] | MIC [7] [µg/mL] | MIC [11] [µg/mL] | MIC [12] [µg/mL] | MIC [14] [µg/mL] | Compound | Activity [8] | Activity [9] | Activity [10] | Activity [13] | Activity [15] | Activity [16] | Activity [17] | Activity [18] | other results
– | – | – | – | – | – | C[C@@H]1[C@H](O)[C@@H](C)/C=C/C=C/C=C/C=C/C=C/C=C/C=C/[C@H](O[C@@H]2O[C@H](C)[C@@H](O)[C@H](N)[C@@H]2O)C[C@@H]2O[C@](O)(C[C@@H](O)C[C@@H](O)[C@H](O)CC[C@@H](O)C[C@@H](O)CC(=O)O[C@H]1C)C[C@H](O)[C@H]2C(=O)O [AMPHOTERICIN B] | – | – | – | – | – | – | – | – | zone of inhibition at 50 µg/disc [1]: 23.5 mm; zone of inhibition at 50 µg/disc [2]: 22 mm; zone of inhibition at 50 µg/disc [3]: 25 mm; zone of inhibition at 50 µg/disc [4]: 24 mm
150 (≈ 403 µM) | 150 (≈ 403 µM) | 150 (≈ 403 µM) | 150 (≈ 403 µM) | 150 (≈ 403 µM) | 150 (≈ 403 µM) | O=c1oc2ccc(Cl)cc2n1CCCN1CCN(c2ccccc2)CC1 | inactive | inactive | inactive | inactive | inactive | inactive | inactive | inactive | –
150 (≈ 389 µM) | 150 (≈ 389 µM) | 150 (≈ 389 µM) | 75 (≈ 194 µM) | 150 (≈ 389 µM) | 75 (≈ 194 µM) | O=c1oc2ccc(Cl)cc2n1CCCN1CCN(Cc2ccccc2)CC1 | inactive | inactive | – | inactive | – | inactive | inactive | – | zone of inhibition at 150 µg/disc [10]: 9 mm; zone of inhibition at 150 µg/disc [15]: 9 mm; zone of inhibition at 100 µg/disc [18]: 7 mm
150 (≈ 402 µM) | 150 (≈ 402 µM) | 150 (≈ 402 µM) | 75 (≈ 201 µM) | 150 (≈ 402 µM) | 150 (≈ 402 µM) | O=c1oc2ccc(Cl)cc2n1CCCN1CCN(c2ccccn2)CC1 | inactive | inactive | inactive | inactive | inactive | inactive | inactive | inactive | –
150 (≈ 690 µM) | 75 (≈ 345 µM) | 150 (≈ 690 µM) | 75 (≈ 345 µM) | 75 (≈ 345 µM) | 150 (≈ 690 µM) | c1ccc2oc(N3CCCNCC3)nc2c1 | inactive | inactive | inactive | inactive | inactive | – | – | inactive | zone of inhibition at 150 µg/disc [16]: 10 mm; zone of inhibition at 100 µg/disc [17]: 8 mm
75 (≈ 253 µM) | 75 (≈ 253 µM) | 75 (≈ 253 µM) | 37.5 (≈ 126 µM) | 37.5 (≈ 126 µM) | 75 (≈ 253 µM) | O=c1oc2ccc(Cl)cc2n1CCCN1CCOCC1 | – | – | – | – | – | – | – | – | zone of inhibition at 150 µg/disc ([8]; MTCC 36, 48 h, read-out: IZ): 10 mm; zone of inhibition at 100 µg/disc ([9]; MTCC 227, 48 h, read-out: IZ): 8 mm; zone of inhibition at 150 µg/disc [10]: 10 mm; zone of inhibition at 100 µg/disc ([13]; MTCC 36, 48 h, read-out: IZ): 8 mm; zone of inhibition at 150 µg/disc [15]: 10 mm; zone of inhibition at 150 µg/disc [16]: 13 mm; zone of inhibition at 100 µg/disc [17]: 10 mm; zone of inhibition at 100 µg/disc [18]: 8 mm

Compound | MIC [5] [µg/mL] | MIC [6] [µg/mL] | MIC [7] [µg/mL] | MIC [11] [µg/mL] | MIC [12] [µg/mL] | MIC [14] [µg/mL] | Activity [8] | Activity [9] | Activity [10] | Activity [13] | Activity [15] | Activity [16] | Activity [17] | Activity [18] | other results
CC1CN(c2nc3ccccc3o2)CCN1 (stereo not drawn) | 150 (≈ 690 µM) | 150 (≈ 690 µM) | 150 (≈ 690 µM) | 150 (≈ 690 µM) | 75 (≈ 345 µM) | 150 (≈ 690 µM) | inactive | inactive | inactive | inactive | inactive | inactive | inactive | inactive | –
